The source of these data is US20070110734A9, “Methods and compositions using cellular asialodeterminants and glycoconjugates for targeting cells to tissues and organs” (Department of Veterans Affairs, Rehabilitation R&D Service, priority 2002, published 2007).

What all share (parameters): species or system NOD-SCID mice
Assay [1] has as its system human CD34+ (hCD34+) peripheral blood stem cells. Briefly: In vivo trafficking of 111In-labeled human CD34+ stem cells (HSC) after glycoprotein infusion, gamma camera imaging. The settings on record: for % Infused Cells in Liver/Spleen: 5.75×10^6 HSC preceded by 5.5 mg orosomucoid i.v.; for organ localization of infused hematopoietic (CD34+) stem cells, in words: cells preceded by infusion of the protein, jugular vein, immunodeficient mice. As to the method: Intravenous cannulas were placed into the external jugular vein of NOD-SCID mice under anesthesia (Institutional Animal Care and Use Committee protocol #AM87046-07) to enable the efficient delivery of ^111In-labeled stem cells i.v. Tylenol elixir was administered by mouth after recovery from anesthesia. Briefly radiolabeled CD34+ cells were taken up in 100-250 ul of 5% human plasma albumin in saline and injected into the cannula and then flushed with 50 ul of the albumin-saline. The mice were imaged by nuclear medicine.
Mice: NOD-SCID, female mice (Nonobese diabetic/LtSz-scid/scid) were obtained from the Jackson Laboratory, Bar Harbor, Me. at 1-2 months of age. These animals were maintained in microisolator cages in a special isolator room. The air was HEPA filtered, and the animals were changed in a laminar flow hood within the facility. All food, bedding, and water was sterilized. […] See, e.g. Hogan, et al., Biology of Blood & Marrow Transplantation 3:236-246 (1997); Noort, et al., Bone Marrow Transplantation 22 Suppl 1:S58-60 (1998).
(§1) ^111Indium Oxine Labeling Procedure: ^111In-oxine labeling of adult human CD34+ or mesenchymal stem cells (hMSCs) was performed using a modification of the Amersham Healthcare Procedure for labeling autologous leukocytes.
(§2) Imaging procedures: Nuclear Medicine. NOD-SCID mice were anesthetized using rodent anesthesia cocktail. Once anesthetized, the mice were placed on a foam hemi-cylindrical mouse positioning device (MPD) and covered with a tube sock. The MPD allows better visual separation of the lungs and liver as compared to placing the mouse on a flat surface. The foam on which the mouse was placed, and the tube sock covering maintained a comfortable temperature permitting longer imaging without additional anesthesia. The MPD was placed on a narrow table between the dual heads of a Siemens E.Cam Gamma Camera and imaged statically or dynamically in 2-D or SPECT. ^57Co-Spot Marker is used to mark anatomic positions (nose, tail, cannula, etc.). The data was analyzed using a Siemens ICON system for regions of interest or percent of injected dose (e.g. liver, spleen, heart).
(§3) Gamma camera imaging using a Siemens E. Cam dual head gamma camera monitored the in vivo trafficking patterns of all human stem cells described in the following examples. Mice were placed on a Mouse Positioning Device (MPD) and placed between the detectors on the imaging platform.
5.75×10^6 111In-labeled human CD34+ (hCD34+) peripheral blood stem cells were administered intravenously (i.v.) via an external jugular vein cannula to 2 month old, NOD-SCID, female mice (Non-obese diabetic/LtSz-scid/scid) obtained from the Jackson Laboratory, Bar Harbor, Me. The radiolabeled CD34+ stem cells were administered after pretreatment of the mouse with 3.3 mg of asialoorosomucoid (ASO) i.v. The in vivo trafficking patterns were followed by gamma camera imaging using a Siemens E.Cam dual head gamma camera from immediately after injection up to 36 hr postinfusion. Human CD34+ were isolated from apheresis stem cell collection products derived from deceased cancer patients. They were purified to 95-99% purity using antibody conjugated to CD34 conjugated to magnetics beads (MACS) separation columns; Miltenyi Biotec, Auburn, Calif. and cryopreserved.
5.75×10^6 111In-labeled human CD34+ (hCD34+) peripheral blood stem cells were administered intravenously (i.v.) via an external jugular vein cannula to 2 month old, NOD-SCID, female mice (Non-obese diabetic/LtSz-scid/scid) obtained from the Jackson Laboratory, Bar Harbor, Me. The radiolabeled CD34+ stem cells were administered after pretreatment of the mouse with 5.5 mg of orosomucoid (O) i.v.
The preparation and procedures set forth in Example I were repeated. […]

The test system of assay [2] is human mesenchymal stem cells (MSC). Nature of the assay: In vivo trafficking of 111In-labeled human mesenchymal stem cells (MSC) after glycoprotein infusion, gamma camera imaging. The settings on record: for % Infused Cells in Heart: 0.56×10^6 MSC preceded by 11 mg orosomucoid i.v. As for the experimental part:
Human mesenchymal stem cells (hMSCs; PT-2501) obtained through a FDA monitored paid bone marrow donor program were purchased from Poietics Technologies, BioWhittaker (Walkerville, Md.). The cells were thawed according to manufacturer recommendations, resuspended, and radiolabeled in Mesenchymal Stem Cell Basal Medium (MSCBM).
as §1, §2, §3
MSC were obtained from BioWhittaker, (Poietics Division, cryopreserved PT-2501 >750,000 cells per ampoule) and labeled with ^111In as in previous examples, except that the MSC were labeled, washed, and injected in Basal Stem Cell Medium (Poietics) containing 5% human serum albumin (HSA). 0.56×10^6 111In labeled, human mesenchymal stem cells (MSC) were administered via an implanted Da Vinci Microport Vascular System cannula in the external jugular vein of a two-month old, female NOD-SCID mouse in 0.21 ml of basal stem cell medium containing 5% human serum albumin (HSA). Immediately prior to administration of MSC, 11.0 mg of orosomucoid was administered i.v. in 0.2 ml.
0.56×10^6 “In-labeled, MSC were administered i.v. in 0.21 ml of basal stem cell medium containing 5% human serum albumin (HSA). Prior to administration of MSC, 0.1 ml containing 4.3 mg of ASO, followed by 0.1 ml containing 5.5 mg orosomucoid were administered i.v. The ASO, orosomucoid and MSC were administered via an implanted Da Vinci Microport Vascular system cannula in the external jugular vein of a two-month old, female NOD-SCID mouse.

In assay [3] the test system is human CD34+ (hCD34+) peripheral blood stem cells. Nature of the assay: In vivo trafficking of 111In-labeled human CD34+ stem cells (HSC) after glycoprotein infusion, gamma camera imaging. The conditions noted are these: 0.5×10^6 HSC preceded by 11 mg orosomucoid i.v.

“alpha-(1)-acid glycoprotein [Orosomucoid]”: the “111In-labeled cells in the region of the heart, in words” value in assay [1] (5.75×10^6 HSC after 5.5 mg orosomucoid i.v., up to 36 hours) is given as “No ^111In-labeled cells were found in the region of the heart”. The “% Infused Cells in Liver/Spleen” value in assay [1] (1.5 hr) was 74 ± 4% at 1.5 hr; in assay [1] (1.5 hr, listed as orosomucoid), 74±4%; in assay [1] (24 hr), 63 ± 1% at 24 hr; in assay [1] (24 hr, listed as O), 63.6%; in assay [1] (24 hr, listed as orosomucoid), 63±1%; in assay [1] (immediately after infusion (0 hr)), 74 ± 3% at 0 hr. Moreover, the “% Infused Cells in Liver/Spleen” value in assay [1] (immediately after infusion (0 hr), listed as O) was 76.3%; in assay [1] (immediately after infusion (0 hr), listed as orosomucoid) it was 74±3%. Besides, the “organ localization of infused hematopoietic (CD34+) stem cells, in words” value in assay [1] (listed as O) was “migrated immediately to the liver/spleen area”; in assay [1] (listed as orosomucoid (O)), “localize in the liver”. Moreover, the “% Infused Cells in Heart” value in assay [2] (0 hr) came to 68 ± 7% at 0 hr; in assay [2] (0 hr, listed as orosomucoid), 68±7%; in assay [2] (1 hr), 61 ± 3% at 1 hr; in assay [2] (1 hr, listed as orosomucoid) it was 61±3%. Also, in assay [2] (cells preceded by infusion of the protein, jugular vein, immunodeficient mice), the “organ localization of infused mesenchymal stem cells, in words” value was “predominantly localize in the heart”. For the same substance, the “% of infused cells in the liver region” value in assay [3] (1 hr) worked out at 40±3%. The “% of infused cells in the liver and spleen” value in assay [3] (immediately after infusion) is listed as 43±2%.
